The first assay concerns Aβ42 production in rat primary neuronal culture. Put plainly: Quantification of Aβ peptide (Aβ42 ELISA) in culture of neurons from rat fetus brain. The format is cell-based. The note with it: Rattus norvegicus, Neuron, 72 h; primary neuronal culture from cerebral cortex of embryonic day 18 Wistar rats; cultured three days after addition of compound; Aβ42 in medium by ELISA; read-out: Aβ42 Production reducing action IC50. How it is done: Quantification of Aβ Peptide in Culture of Neurons from Rat Fetus Brain
(1) Rat Primary Neuronal Culture
Primary neuronal cultures were prepared from the cerebral cortex of embryonic day 18 Wistar rats (Charles River Japan, Yokohama, Japan). Specifically, the embryos were aseptically removed from pregnant rats under ether anesthesia. The brain was isolated from the embryo and immersed in an ice-cold L-15 medium (Invitrogen Corp. Cat #11415-064, Carlsbad, Calif., USA, or SIGMA L1518, for example). The cerebral cortex was collected from the isolated brain under a stereoscopic microscope. The cerebral cortex fragments collected were enzymatically treated in an enzyme solution containing 0.25% trypsin (Invitrogen Corp. Cat #15050-065, Carlsbad, Calif., USA) and 0.01% DNase (Sigma D5025, St. Louis, Mo., USA) at 37° C. for 30 minutes to disperse the cells. Here, the enzymatic reaction was stopped by adding inactivated horse serum to the solution. The enzymatically treated solution was centrifuged at 1,500 rpm for five minutes to remove the supernatant 5 to 10 ml of a medium was added to the resulting cell mass. Neurobasal medium (Invitrogen Corp. Cat #21103-049, Carlsbad, Calif., USA) supplemented with 2% B27 supplement (Invitrogen Corp. Cat #17504-044, Carlsbad, Calif., USA), 25 μM 2-mercaptoethanol (2-ME, WAKO Cat #139-06861, Osaka, Japan), 0.5 mM L-glutamine (Invitrogen Corp. Cat #25030-081, Carlsbad, Calif., USA), and Antibiotics-Antimycotics (Invitrogen Corp. Cat #15240-062, Carlsbad, Calif., USA) was used as the medium (Neurobasal/B27/2-ME). However, the above Neurobasal medium not supplemented with 2-ME (Neurobasal/B27) was used for the assay. The cells were redispersed by mild pipetting of the cell mass to which the medium was added. The cell dispersion was filtered through a 40-μm nylon mesh (Cell Strainer, Cat #35-2340, Becton Dickinson Labware, Franklin Lakes, N.J., USA) to remove the remaining cell mass, and thus a neuronal cell suspension was obtained. The neuronal cell suspension was diluted with the medium and then plated in a volume of 100 μl/well at an initial cell density of 5×10^5 cells/cm^2 in a 96-well polystyrene culture plate pre-coated with poly-L or D-lysine (Falcon Cat #35-3075, Becton Dickinson Labware, Franklin Lakes, N.J., USA coated with poly-L-lysine using the method shown below, or BIOCOAT™ cell environments Poly-D-lysine cell ware 96-well plate, Cat #35-6461, Becton Dickinson Labware, Franklin Lakes, N.J., USA). Poly-L-lysine coating was carried out as follows. 100 μg/ml of a poly-L-lysine (SIGMA P2636, St. Louis, Mo., USA) solution was aseptically prepared with a 0.15 M borate buffer (pH 8.5). […] Thereafter, the coated 96-well polystyrene culture plate was washed with sterile water four or more times, and then dried or rinsed with sterile PBS or medium, and used for cell plating. The plated cells were cultured in the culture plate at 37° C. in 5% CO2-95% air for one day. Then, the total amount of the medium was replaced with a fresh Neurobasal/B27/2-ME medium, and then the cells were cultured for further three days.
The drug was added to the culture plate on Day 4 of culture as follows. The total amount of the medium was removed from the wells, and 180 μl/well of Neurobasal medium not containing 2-ME and containing 2% B-27 (Neurobasal/B27) was added thereto. A solution of the test compound in dimethyl sulfoxide (hereinafter abbreviated as DMSO) was diluted with Neurobasal/B27 to a concentration 10-fold higher than the final concentration. 20 μl/well of the dilution was added to and sufficiently mixed with the medium. The final DMSO concentration was 1% or less. Only DMSO was added to the control group.
The cells were cultured for three days after addition of the compound, and the total amount of the medium was collected. The resulting medium was used as an ELISA sample. […]
On the technique in general: An ELISA detects its analyte on a solid surface through an enzyme-linked reagent.
A word on the IC50: it is the concentration that inhibits the measured activity by half. On to `COc1nc(-c2cn3c(n2)C(c2ccccc2C(F)(F)F)CCC3)ccc1-n1cnc(C)c1` (single isomer, unassigned) [Example 102, (−)-2-[6-methoxy-5-(4-methylimidazol-1-yl)pyridin-2-yl]-8-(2-trifluoromethylphenyl)-5,6,7,8-tetrahydroimidazo[1,2-a]pyridine], for which the IC50 was found to be 55 nM. For the compound `COc1nc(-c2cn3c(n2)[C@H](c2ccccc2C(F)(F)F)CC3)ccc1-n1cnc(C)c1` (single isomer, unassigned) [Example 104, (−)-2-[6-methoxy-5-(4-methylimidazol-1-yl)pyridin-2-yl]-7-(2-trifluoromethylphenyl)-6,7-dihydro-5H-pyrrolo[1,2-a]imidazole], the IC50 was determined as 91 nM. Take `COc1nc(-c2cn3c(n2)[C@H](c2ccc(Cl)cc2C(F)(F)F)CCC3)ccc1-n1cnc(C)c1` (single isomer, unassigned) [Example 108, (−)-8-(4-chloro-2-trifluoromethylphenyl)-2-[6-methoxy-5-(4-methylimidazol-1-yl)pyridin-2-yl]-5,6,7,8-tetrahydroimidazo[1,2-a]pyridine]: the IC50 was 18 nM. The same measure, in the same setting: the value for `COc1cc(C)c(C2CCCn3nc(-c4ccc(-n5cnc(C)c5)c(OC)n4)nc32)cc1C(C)C` (single isomer, unassigned; (-)) [Example 2, (−)-8-(5-isopropyl-4-methoxy-2-methylphenyl)-2-[6-methoxy-5-(4-methylimidazol-1-yl)pyridin-2-yl]-5,6,7,8-tetrahydro[1,2,4]triazolo[1,5-a]pyridine] was 10 nM; that for `COc1nc(-c2nc3n(n2)CCC[C@@H]3c2cc(-c3ccc(C(F)(F)F)cn3)ccc2Cl)ccc1-n1cnc(C)c1` (stereo in doubt) [Example 361, (−)-8-[2-chloro-5-(5-trifluoromethylpyridine-2-yl)phenyl]-2-[6-methoxy-5-(4-methyl-1H-imidazole-1-yl)pyridine-2-yl]-5,6,7,8-tetrahydro[1,2,4]triazolo[1,5-a]pyridine] was 13 nM; that for `COc1nc(-c2cn3c(n2)[C@H](c2ccc(Br)cc2C(F)(F)F)CCC3)ccc1-n1cnc(C)c1` [Example 100, (−)-8-(4-bromo-2-trifluoromethylphenyl)-2-[6-methoxy-5-(4-methylimidazol-1-yl)pyridin-2-yl]-5,6,7,8-tetrahydroimidazo[1,2-a]pyridine] was 9 nM.

As to `COc1cc([C@@H]2CCCn3nc(-c4ccc(-n5cnc(C)c5)c(OC)n4)nc32)cc(C(C)(C)C)c1` [Example 187], the IC50 was 11 nM. As to `COc1cc([C@@H]2CCCn3nc(-c4ccc(-n5cnc(C)c5)c(OC)n4)nc32)ccc1C(C)(C)C` [Example 191], the IC50 stood at 7 nM. With `COc1nc(-c2nc3n(n2)CCC[C@H]3c2cccc(C(C)(C)C)c2)ccc1-n1cnc(C)c1` [Example 193], the IC50 stood at 13 nM. As for `COc1nc(-c2nc3n(n2)CCC[C@H]3c2cc(C(C)(C)C)ccc2F)ccc1-n1cnc(C)c1` [Example 197], the IC50 came out at 13 nM. For the compound `COc1nc(-c2nc3n(n2)CCC[C@H]3c2cc(C(C)(C)C)ccc2Br)ccc1-n1cnc(C)c1` [Example 199], the IC50 came to 6 nM. The same measure, in the same setting: the result for `COc1nc(-c2nc3n(n2)CCC[C@H]3c2cc(C(C)(C)C)c(F)cc2F)ccc1-n1cnc(C)c1` [Example 211] reads 15 nM; that for `COc1nc(-c2nc3n(n2)CCC[C@H]3c2cc(C(C)(C)C#N)c(Cl)cc2Cl)ccc1-n1cnc(C)c1` [Example 225], 28 nM.

The same assay, now with this note: primary neuronal culture from cerebral cortex of embryonic day 18 Wistar rats; cultured three days after addition of compound; Aβ42 in medium by ELISA; read-out: Aβ42 Production reducing action IC50.
`COc1nc(-c2nc3n(n2)CCC[C@H]3c2ccc(Br)cc2C(F)(F)F)ccc1-n1cnc(C)c1` [Example 42, −8-4-bromo-2-trifluoromethylphenyl-2-[6-methoxy-5-(4-methylimidazol-1-yl)pyridin-2-yl]-5,6,7,8-tetrahydro[1,2,4]triazolo[1,5-a]pyridine]: the IC50 was found to be 52 nM.

Consider `COc1ccc([C@@H]2CCCn3nc(-c4ccc(-n5cnc(C)c5)c(OC)n4)nc32)cc1C(C)(C)C` [Example 59], for which the IC50 was determined as 7 nM.

Values taken from patent publication US8754100B2, “Nitrogen-containing fused heterocyclic compounds and their use as beta amyloid production inhibitors” (EISAI R&D Management Co., Ltd., priority 2009, dated 2014).
